{"source": "patent US20250249144A1", "about": "“PEPTIDE AMPHIPHILE SUPRAMOLECULAR POLYMERS FOR SPRAY DELIVERY AND TISSUE REGENERATION APPLICATIONS” (The University of Southern Mississippi, priority 2024, published 2025)", "key": {"dermal wound": {"system": "dermal wound", "conditions": "rat full thickness excision model; cited from earlier work"}, "ERK receptor": {"system": "ERK receptor", "conditions": "cited from earlier work"}, "[1]": {"system": "full thickness injury, atopic dermatitis", "conditions": "rodent models of full thickness injury and atopic dermatitis; cited from earlier work"}, "full thickness burn": {"system": "full thickness burn", "assay": "burn injury murine model, wound closure", "format": "in vivo", "conditions": "mouse, 3 days and 7 days post treatment, one-way ANOVA, p<0.05", "description": "The benefits of, and potential for, regeneration of the biocompatible and bioactive PA nanofiber scaffold was assessed in a mouse burn injury model. […] (See FIGS. 5 and 6). A 1×1 cm diameter steel billet was heated to 100° C. in a dry heat bath. Mice were anesthetized using isoflurane throughout the procedures. After successful anesthesia had been achieved, mice were clipped circumferentially on their trunks/dorsum and prepped with betadine. Burn injury was accomplished by applying the previously heated billet to the dorsum of each animal for 10 seconds. A total of 6 applications of the rod (3 on each side of the midline back) produced an approx. 20% total body surface area (TBSA) full thickness burn. Mice were further wrapped with a self-adherent wrap to protect the wound. Mice were resuscitated using 1.0 mL i.p. saline (which included 0.03 mL Buprenex SR and 0.06 mL Meloxicam SR) and placed onto warming pads until full recovery from anesthesia was determined. 8 hours post-burn, they received a 2nd bolus of 1 mL i.p. fluid. […] Healing was assessed following a single application. […] Quantification of wound healing was accomplished by digital image planimetry with ImageJ at 3 days, and 7 days post treatment, with representative images of wound healing at day 15 post treatment also being provided."}, "receptor of EPO": {"biological_target": "T1, receptor of EPO (Homo sapiens, UniProt P19235)", "T1 sequence (P19235 25-508)": "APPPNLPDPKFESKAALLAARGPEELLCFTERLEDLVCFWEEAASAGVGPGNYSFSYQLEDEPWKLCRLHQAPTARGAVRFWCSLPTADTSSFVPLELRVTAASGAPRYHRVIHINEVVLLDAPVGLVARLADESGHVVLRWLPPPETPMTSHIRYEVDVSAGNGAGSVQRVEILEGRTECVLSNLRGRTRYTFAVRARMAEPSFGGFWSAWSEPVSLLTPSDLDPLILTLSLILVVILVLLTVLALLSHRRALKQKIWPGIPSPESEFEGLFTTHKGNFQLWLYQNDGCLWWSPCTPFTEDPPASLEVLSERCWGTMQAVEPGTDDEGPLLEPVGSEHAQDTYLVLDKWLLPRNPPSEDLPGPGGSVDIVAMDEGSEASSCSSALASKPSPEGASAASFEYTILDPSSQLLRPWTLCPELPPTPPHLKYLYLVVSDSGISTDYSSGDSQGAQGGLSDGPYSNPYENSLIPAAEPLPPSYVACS", "conditions": "cyclized through the cysteine residues; cited from earlier work"}, "erythropoiesis": {"system": "erythropoiesis", "conditions": "mice; cited from earlier work"}, "diabetic wound": {"system": "diabetic wound", "conditions": "diabetic wound model; cited from earlier work"}}, "note": "Non-standard residues stand in square brackets, D forms with d. Residues, ends and D or L forms follow the SMILES beside them. ξ: configuration not given here. *: point of attachment. Palmitoyl = CCCCCCCCCCCCCCCC(=O)*; aThr = C[C@H](O)[C@H](N)C(=O)O; ξV = CC(C)C(N)C(=O)O"}
{"compound": "CC(C)C[C@@H](NC(=O)CNC(=O)[C@@H](Cc1ccc(O)cc1)NC(=O)[C@@H](NC(=O)[C@H](NC(=O)[C@@H](N)CO)C(C)C)C(C)C)C(=O)N[C@@H](CCCNC(=N)N)C(=O)O", "note": "[SVVYGLR, SVVYGLR (SEQ ID NO.: 3)]", "values": [{"measurement": "dermal wound healing", "setting": "dermal wound", "result": "effective in promoting dermal wound healing"}]}
{"compound": "C[C@H](O)[C@H](NC(=O)[C@@H](CCCNC(=N)N)NC(=O)CNC(=O)[C@@H](CCC(=O)O)NC(=O)[C@@H](N)CCCNC(=N)N)C(=O)O", "note": "[REGRT, REGRT (SEQ ID NO.2)] (H-R[dE]G[dR][aThr]-OH)", "values": [{"measurement": "phosphorylation of the ERK receptor", "setting": "ERK receptor", "result": "effective phosphorylation of the ERK receptor"}, {"measurement": "wound healing", "setting": "[1]", "result": "promotion of wound healing"}]}
{"compound": "CCCCCCCCCCCCCCCC(=O)NC(C(=O)N[C@H](C(=O)NCC(=O)N[C@@H](C)C(=O)NCC(=O)N[C@@H](C)C(=O)N[C@H](CCC(=O)O)C(=O)N[C@@H](CCC(=O)O)C(=O)N[C@H](CCC(=O)O)C(N)=O)C(C)C)C(C)C", "note": "(stereo partly shown) [diluent PA] (Palmitoyl-[ξV]VGAGA[dE]E[dE]-NH2)", "values": [{"measurement": "wound healing by digital image planimetry, significance vs control", "setting": "full thickness burn", "result": "significant at 7 days"}]}
{"compound": "GGTYSCHFGPLTWVCKPQGG (SEQ ID NO.: 1) [EMP1]", "values": [{"measurement": "activation of the EPO receptor", "setting": "receptor of EPO", "result": "capable of activating the receptor of EPO"}, {"measurement": "erythropoiesis", "setting": "erythropoiesis", "result": "stimulating erythropoiesis"}]}
{"compound": "N=C(N)NCCC[C@H](NC(=O)[C@@H](Cc1cnc[nH]1)NC(=O)[C@@H](N)CCC(N)=O)C(=O)N[C@H](CCC(=O)O)C(=O)N[C@@H](CC(=O)O)C(=O)NCC(=O)N[C@@H](CO)C(=O)O", "note": "[QHREDGS, QHREDGS (SEQ ID NO.4)]", "values": [{"measurement": "wound closure", "setting": "diabetic wound", "result": "significantly accelerate wound closure"}]}
